Laboratory results from ChEMBL document CHEMBL5625234, “Magic shotgun approach to anti-inflammatory pharmacotherapy: Synthesis of novel thienopyrimidine monomers/heterodimer as dual COX-2 and 15-LOX inhibitors endowed with potent antioxidant activity” (Eur J Med Chem, 2023).

How the values were obtained:
RAW264.7 [1] = assay: cells; settings: Mus musculus
[2] = Inhibition of soybean 15-LOX using arachidonic acid/linolenic acid as substrate preincubated for 5 mins followed by substrate addition and measured after 10 mins by absorbance based assay; parameters: species or system Glycine max
[3] = biological target: T1, Prostaglandin G/H synthase 1 (Ovis aries, UniProt P05979); assay: Inhibition of ovine COX-1 using arachidonic acid as substrate preincubated for 10 mins followed by substrate addition and measured after 2 mins by ELISA
T1 sequence (P05979 whole entry): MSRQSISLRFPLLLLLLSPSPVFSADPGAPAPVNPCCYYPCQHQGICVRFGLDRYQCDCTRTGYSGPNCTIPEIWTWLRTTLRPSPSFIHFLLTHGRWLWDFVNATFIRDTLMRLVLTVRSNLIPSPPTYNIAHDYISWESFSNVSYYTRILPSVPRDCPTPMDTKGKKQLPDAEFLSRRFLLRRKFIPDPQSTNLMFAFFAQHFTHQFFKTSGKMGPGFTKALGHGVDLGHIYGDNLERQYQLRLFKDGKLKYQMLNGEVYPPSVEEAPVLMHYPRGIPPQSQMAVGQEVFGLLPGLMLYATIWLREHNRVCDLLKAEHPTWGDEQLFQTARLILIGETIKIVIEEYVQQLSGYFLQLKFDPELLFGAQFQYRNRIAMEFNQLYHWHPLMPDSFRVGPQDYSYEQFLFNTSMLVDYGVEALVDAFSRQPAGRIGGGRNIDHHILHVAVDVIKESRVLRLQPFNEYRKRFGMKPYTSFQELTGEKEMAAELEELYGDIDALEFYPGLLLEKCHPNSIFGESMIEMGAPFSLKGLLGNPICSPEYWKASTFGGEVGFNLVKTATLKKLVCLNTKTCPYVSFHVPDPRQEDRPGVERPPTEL

RAW264.7 [4] = assay: cells; settings: Mus musculus; remark: listed apart in the source
[5] = Inhibition of soybean 15-LOX using arachidonic acid as substrate preincubated with compound followed by substrate addition and measured after 5 mins by absorbance based microplate reader; parameters: species or system Glycine max
RAW264.7 [6] = assay: cells; settings: Mus musculus; remark: listed apart in the source
RAW264.7 [7] = assay: cells; settings: Mus musculus; remark: listed apart in the source
[8] = biological target: T2, Polyunsaturated fatty acid lipoxygenase ALOX15 (Homo sapiens, UniProt P16050); assay: Inhibition of 15-LOX (unknown origin) using linoleic acid as substrate incubated for 5 mins by absorbance based assay
T2 sequence (P16050 whole entry): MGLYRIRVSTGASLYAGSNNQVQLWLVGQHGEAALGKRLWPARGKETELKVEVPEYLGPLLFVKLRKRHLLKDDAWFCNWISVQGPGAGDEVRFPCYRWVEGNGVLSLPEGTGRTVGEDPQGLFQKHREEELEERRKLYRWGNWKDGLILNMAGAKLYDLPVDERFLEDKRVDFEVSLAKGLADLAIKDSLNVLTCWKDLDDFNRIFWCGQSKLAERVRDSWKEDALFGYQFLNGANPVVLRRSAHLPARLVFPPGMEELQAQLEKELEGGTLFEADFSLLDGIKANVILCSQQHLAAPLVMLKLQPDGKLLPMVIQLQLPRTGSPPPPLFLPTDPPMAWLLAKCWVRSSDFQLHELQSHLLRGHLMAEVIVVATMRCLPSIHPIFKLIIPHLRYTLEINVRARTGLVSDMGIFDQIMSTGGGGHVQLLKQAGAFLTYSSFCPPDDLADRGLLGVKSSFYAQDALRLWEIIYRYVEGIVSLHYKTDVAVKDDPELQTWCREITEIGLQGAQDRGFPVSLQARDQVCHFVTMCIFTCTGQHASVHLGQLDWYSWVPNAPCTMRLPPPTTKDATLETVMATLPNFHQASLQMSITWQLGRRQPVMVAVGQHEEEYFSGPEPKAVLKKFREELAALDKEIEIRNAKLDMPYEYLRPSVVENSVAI

[9] = biological target: T3, Prostaglandin G/H synthase 2 (Ovis aries, UniProt P79208); assay: Inhibition of ovine COX-2 using arachidonic acid as substrate preincubated for 5 mins followed by substrate addition and measured after 2 mins by colorimetric assay
T3 sequence (P79208 whole entry): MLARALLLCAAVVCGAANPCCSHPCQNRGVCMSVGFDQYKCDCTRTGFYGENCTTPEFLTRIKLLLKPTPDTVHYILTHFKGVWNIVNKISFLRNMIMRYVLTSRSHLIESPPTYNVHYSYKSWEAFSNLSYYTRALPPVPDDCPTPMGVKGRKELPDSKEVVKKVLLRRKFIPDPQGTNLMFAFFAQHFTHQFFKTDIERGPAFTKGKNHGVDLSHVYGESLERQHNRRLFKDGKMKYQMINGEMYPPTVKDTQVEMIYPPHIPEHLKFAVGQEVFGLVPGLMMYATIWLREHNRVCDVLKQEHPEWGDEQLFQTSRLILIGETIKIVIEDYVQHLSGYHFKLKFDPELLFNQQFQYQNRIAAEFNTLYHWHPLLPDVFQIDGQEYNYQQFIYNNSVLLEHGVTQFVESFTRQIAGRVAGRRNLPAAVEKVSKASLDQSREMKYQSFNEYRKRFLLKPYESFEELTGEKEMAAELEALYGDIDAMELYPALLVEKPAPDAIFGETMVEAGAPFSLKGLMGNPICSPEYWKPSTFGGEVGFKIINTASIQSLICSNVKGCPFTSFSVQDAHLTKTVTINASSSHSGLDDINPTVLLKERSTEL

Ovis aries = species on record: Ovis aries; assay: Selectivity index, ratio of IC50 for inhibition of ovine COX-1 to IC50 for inhibition of ovine COX-2
[10] = biological target: T4, Prostaglandin G/H synthase 2 (Homo sapiens, UniProt P35354); assay: Inhibition of human COX-2 using arachidonic acid as substrate incubated for 30 secs by ELISA
T4 sequence (P35354 whole entry): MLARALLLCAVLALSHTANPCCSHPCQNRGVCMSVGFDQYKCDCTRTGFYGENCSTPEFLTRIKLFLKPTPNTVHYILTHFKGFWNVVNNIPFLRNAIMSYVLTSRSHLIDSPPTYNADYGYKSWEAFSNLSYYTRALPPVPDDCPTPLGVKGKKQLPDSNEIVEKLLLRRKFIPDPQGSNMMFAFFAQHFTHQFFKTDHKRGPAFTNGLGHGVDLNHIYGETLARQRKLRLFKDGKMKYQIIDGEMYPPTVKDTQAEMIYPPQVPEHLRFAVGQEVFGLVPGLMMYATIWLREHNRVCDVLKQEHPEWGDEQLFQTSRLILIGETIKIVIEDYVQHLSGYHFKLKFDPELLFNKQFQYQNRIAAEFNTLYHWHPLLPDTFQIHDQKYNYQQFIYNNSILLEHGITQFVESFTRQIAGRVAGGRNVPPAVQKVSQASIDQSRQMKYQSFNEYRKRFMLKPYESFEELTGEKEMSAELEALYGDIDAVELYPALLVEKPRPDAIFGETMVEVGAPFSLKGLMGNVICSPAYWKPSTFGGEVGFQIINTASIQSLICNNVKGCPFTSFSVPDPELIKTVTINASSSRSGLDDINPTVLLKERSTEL

[11] = biological target: T4, Prostaglandin G/H synthase 2; assay: Inhibition of human COX-2
[12] = biological target: COX-1/COX-2 (Homo sapiens) (UniProt P35354+P23219); assay: Selectivity index, ratio of IC50 for inhibition of human COX-1 to IC50 for inhibition of human COX-2; format: protein assay
Sequence of COX-1/COX-2 (Homo sapiens) (P23219 whole entry, looked up, one chain of several): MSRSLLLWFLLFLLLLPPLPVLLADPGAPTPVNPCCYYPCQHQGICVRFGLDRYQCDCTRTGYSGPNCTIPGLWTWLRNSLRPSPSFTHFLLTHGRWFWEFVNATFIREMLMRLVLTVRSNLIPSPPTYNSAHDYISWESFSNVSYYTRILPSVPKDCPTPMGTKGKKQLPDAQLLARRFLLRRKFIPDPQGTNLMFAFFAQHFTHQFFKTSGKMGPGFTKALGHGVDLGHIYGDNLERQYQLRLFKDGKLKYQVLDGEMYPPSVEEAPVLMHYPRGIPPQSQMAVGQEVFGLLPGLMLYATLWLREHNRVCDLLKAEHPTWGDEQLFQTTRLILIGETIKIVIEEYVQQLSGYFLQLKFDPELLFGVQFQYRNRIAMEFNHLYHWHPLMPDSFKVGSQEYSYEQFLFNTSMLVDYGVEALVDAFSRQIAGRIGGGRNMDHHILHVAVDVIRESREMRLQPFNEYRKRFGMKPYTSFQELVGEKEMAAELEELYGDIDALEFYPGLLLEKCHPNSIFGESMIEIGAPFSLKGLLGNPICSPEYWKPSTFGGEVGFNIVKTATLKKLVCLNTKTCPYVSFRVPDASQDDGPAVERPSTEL

Structure (SMILES)	IC50 (RAW264.7 [1]) [µM]	IC50 [2] [µM]	IC50 [3] [µM]	other results
Cc1ccc(Nc2nc(-c3ccc([N+](=O)[O-])cc3)nc3sc4c(c23)CCCC4)cc1	> 100	2.76	8.2	
COc1cc(-c2nc(Nc3ccc(F)cc3)c3c4c(sc3n2)CCCC4)cc(OC)c1OC	> 100	2.29	10.9	IC50 (RAW264.7 [4]): 168 µM
Clc1ccc(-c2nc(Nc3ccc(Br)cc3)c3c4c(sc3n2)CCCC4)cc1	> 100	2.11	9.12	
O=C(C/C(=C/c1cccc([N+](=O)[O-])c1)c1n[nH]c(=S)o1)c1ccc(Cl)c(Cl)c1			10.4	IC50 [5]: 1.63 µM
COc1cc(/C=C2\S/C(=N/c3nnc(C)s3)NC2=O)cc(OC)c1OC		10.9	12.3	
Fc1ccc(Nc2nc(-c3ccc(Cl)cc3)nc3sc4c(c23)CCCC4)cc1		4.81	5.82	IC50 (RAW264.7 [6]): > 100 µM
COc1cc(-c2nc(Nc3ccc(C)cc3)c3c4c(sc3n2)CCCC4)cc(OC)c1OC	> 100	2.66	8.5	IC50 (RAW264.7 [7]): > 100 µM; IC50 (RAW264.7 [6]): > 100 µM
CCn1c(-n2cc(/C=N/N=c3\scc(-c4ccc(Br)cc4)n3-c3ccccc3)c(-c3ccc(OC)cc3)n2)nc2[nH]c(=O)n(C)c(=O)c21				IC50 [8]: 1.82 µM
Clc1ccc(-c2nn(-c3ccccc3)cc2/C=N/Nc2ncnc3c(-c4ccccc4)csc23)cc1				IC50 [9]: 0.048 µM; Ratio IC50 (Ovis aries): 248
O=[N+]([O-])c1ccc(-c2nc(Nc3ccc(Br)cc3)c3c4c(sc3n2)CCCC4)cc1	> 100	3.41	9.87	IC50 (RAW264.7 [4]): > 100 µM
COc1ccc(-c2nc(NNc3ncnc4sc5c(c34)CCCC5)c3c4c(sc3n2)CCCC4)cc1	> 100	1.86	11.3	
O=[N+]([O-])c1ccc(-c2nc(Nc3cccc(Br)c3)c3c4c(sc3n2)CCCC4)cc1	> 100	3.99	6.49	
Cc1ccc(Nc2nc(-c3ccc(Cl)cc3)nc3sc4c(c23)CCCC4)cc1	> 100	4.49	8.2	IC50 (RAW264.7 [7]): > 100 µM
O=[N+]([O-])c1ccc(-c2nc(Nc3ccc(F)cc3)c3c4c(sc3n2)CCCC4)cc1	> 100	3.63	7.18	
CS(=O)(=O)c1ccc(C2CN(c3ccc(C(F)(F)F)cc3)N=N2)cc1 (centres undefined)				IC50 [10]: 0.226 µM
CSc1nnc2n(Cc3ccccc3)c(=O)c3c4c(sc3n12)CCCC4				IC50 [11]: 0.52 µM; Ratio IC50 [12]: 192
COc1ccc(-c2nc(Nc3ccc(F)cc3)c3c4c(sc3n2)CCCC4)cc1	> 100	1.97	11.4	IC50 (RAW264.7 [6]): > 100 µM
CCn1c(-n2cc(/C=N/N=c3\scc(-c4ccc(Br)cc4)n3-c3ccccc3)c(-c3ccc(Cl)cc3)n2)nc2[nH]c(=O)n(C)c(=O)c21				IC50 [8]: 1.76 µM
Clc1ccc(-c2nc(Nc3cccc(Br)c3)c3c4c(sc3n2)CCCC4)cc1	> 100	3.36	8.55	IC50 (RAW264.7 [7]): > 100 µM
O=c1[nH]/c(=C\c2nnc(-c3ccc(O)cc3)s2)s/c1=C\c1ccc(Cl)c(Cl)c1		11.9	15.4	
COc1ccc(-c2nc(Nc3ccc(Br)cc3)c3c4c(sc3n2)CCCC4)cc1	> 100	2.4	9.53	
